# According to patent US20050085553A1, “Remedies for mild recognition deflict” (priority 2001, published 2005):
# Legend:
# [1] = system: Fisher344 rats (27-month old, male); experiment: water maze test, learning deficit in old rats; type: in vivo, rat; conditions: 0.3 or 1.0 mg/kg orally once a day for 14 days
# Experimental: An Ameliorative Effect of the Agent on Learning Deficit in Old Rats
# Fisher344 rats (27-month old, male) were previously subjected to four trials of a water maze test using a pool with a diameter of 90 cm and a platform on the surface of water in the pool. The rats with remarkable disability to swim were excluded and the rest were divided into several groups. The compound A (0.3 or 1.0 mg/kg) was orally administered to the rats once a day for 14 days. On the 10th day, the rats were subjected to four trials of a water maze test using a platform on the surface of water in a pool and confirmed again that they had no difficulty in swimming ability. Starting from the next day, the rats were subjected four times a day for 3 days to a water maze test using a pool with a diameter of 120 cm and a platform submerged below the surface of water in the pool. In this test, the time required for the rats to arrive at the platform was measured. Two trials were expressed as one block. During the behavioral pharmacological test period, the drug was administered after the test.
# insoluble Aβ42 = experiment: quantity of insoluble Aβ42 in cerebral cortex of transgenic mice with Swedish APP mutation (ELISA); type: in vivo, mouse; conditions: feed containing 56 ppm (about 7 mg/kg/day) for six months, 13-14 month old mice
# Experimental: (§1) An Effect on Increase in Insoluble Aβ40/42 and Amyloid Plaque Formation in the Brains of Transgenic Mice with Swedish APP Mutation
# (§2) Transgenic mice with Swedish amyloid precursor protein (APP) mutation (7- to 8-month old) were given solid feed containing the compound A (56 ppm) (equivalent to a dosage of about 7 mg/kg/day) or control feed for six months. After six months from the administration, one cerebral hemisphere was used for brain histological examination and the other hemisphere was used for determining the quantity of Aβ40/42. Cerebral cortex was used for measuring the quantity of Aβ. The accumulation type of insoluble Aβ40/42 protein were extracted by homogenization of the cerebral cortex in 25 times amount of Tris buffer (containing a protease inhibitor) followed by centrifugation to remove the supernatant. Then, 19 times amount of 70% formic acid was added to the insoluble precipitation and homogenized to solubilize it. After centrifugation, the supernatant was diluted to 1/20 with 1M Tris solution for neutralization and the diluted supernatant was used for determining the quantity of Aβ40/42 contained therein. Using enzyme-linked immunosorbent assay (ELISA), the quantity of accumulation-type Aβ40/42 was measured.
# insoluble Aβ40 = experiment: quantity of insoluble Aβ40 in cerebral cortex of transgenic mice with Swedish APP mutation (ELISA); type: in vivo, mouse; conditions: feed containing 56 ppm (about 7 mg/kg/day) for six months, 13-14 month old mice
# Experimental: as §1, §2
# [2] = system: transgenic mice with Swedish APP mutation; experiment: general condition of the mice during the drug administration period; type: in vivo, mouse; conditions: feed containing 56 ppm (about 7 mg/kg/day) for six months
# Experimental: as §2
# amyloid plaques = experiment: number and area of amyloid plaques, brain sections immunostained with BAN50; type: in vivo, mouse; conditions: feed containing 56 ppm (about 7 mg/kg/day) for six months; sections containing dorsal hippocampus
# Experimental: as §1
# as §2, with “measured. […]” for “measured.”
smiles,measurement,setting,value
"CN(C)CC[C@@H]1CCc2cc(OCc3ccc(-c4ccccc4)cc3)ccc2C1.Cl.O [compound A, (R)-(+)-6-(4-biphenylyl)methoxy-2-[2-(N,N-dimethylamino)ethyl]tetralin Hydrochloride Monohydrate]",swimming time for escape,"[1]; final training block, compared between the groups",significantly shortened
same,time required to arrive at the platform,"[1]; water maze, large pool (120 cm), submerged platform, vs old control group",significantly improved
same,reduction of quantity of insoluble Aβ42 in contrast to the vehicle group,insoluble Aβ42,about 30%
same,reduction of quantity of insoluble Aβ40 in contrast to the vehicle group,insoluble Aβ40,about 30%
same,change in the general condition of the mice including weight loss,[2],no change
same,"area of amyloid plaques, relative to the vehicle group",amyloid plaques,~35 % of those in the vehicle group
same,"number of amyloid plaques, relative to the vehicle group",amyloid plaques,about 40 % of those in the vehicle group
